Results on two substances are retold here after patent publication USRE48461E1, “Modulation of androgen receptor expression” (Ionis Pharmaceuticals, Inc., priority 2012, dated 2021).

Oligonucleotides are written 5' to 3', each unit as a sugar letter and its base; * is a phosphorothioate linkage, no mark a phosphodiester; rarer units and linkages stand in square brackets, end groups in braces. Plain capitals give the bases only. k = constrained ethyl (cEt); d = 2'-deoxy (DNA)

Data set [1] concerns TMPRSS2 mRNA. Kind of data set: TMPRSS2 mRNA levels in LMR20 cells. Type of data set: cell-based, human. Conditions: for TMPRSS2 mRNA levels (% baseline value) after treatment with DHT / TMPRSS2 mRNA levels (% baseline value) after treatment with R1881 / TMPRSS2 mRNA levels (% baseline value) of cells without AR agonist treatment: LMR20 cells; for TMPRSS2 mRNA levels (% baseline value) after treatment with DHT: DHT 10 nM 72 hrs; for TMPRSS2 mRNA levels (% baseline value) after treatment with R1881: R1881 10 nM 72 hrs; for TMPRSS2 mRNA levels (% baseline value) of cells without AR agonist treatment: no AR agonist. The method, then: (§1) LMR20 cells were plated at 1,500 cells per well in phenol red-free medium with CSS.

Data set [2] concerns AR mRNA. Kind of data set: AR mRNA levels in LMR20 cells (with/without DHT or R1881). It counts as cell-based, human. The conditions noted are these: for AR mRNA levels (% baseline value) after treatment with DHT / AR mRNA levels (% baseline value) after treatment with R1881 / AR mRNA levels (% baseline value) of cells without AR agonist treatment: LMR20 cells; for AR mRNA levels (% baseline value) after treatment with DHT: DHT 10 nM 72 hrs; for AR mRNA levels (% baseline value) after treatment with R1881: R1881 10 nM 72 hrs; for AR mRNA levels (% baseline value) of cells without AR agonist treatment: no AR agonist. The protocol:
as §1

On to “549458 (kG*kT*kT*dG*dA*dT*dT*dT*dA*dA*dT*dG*dG*kT*kT*kG) [compound 549458]”, for which the “TMPRSS2 mRNA levels (% baseline value) after treatment with DHT” value in data set [1] (ASO 0.04 μM) was 127 % baseline value; in data set [1] (ASO 0.20 μM), 119 % baseline value; in data set [1] (ASO 1.0 μM) it was 106 % baseline value; in data set [1] (ASO 5.0 μM), 91 % baseline value. For the same substance, the “TMPRSS2 mRNA levels (% baseline value) after treatment with R1881” value came to 137 % baseline value in data set [1] (ASO 0.04 μM), 119 % baseline value in data set [1] (ASO 0.20 μM), 96 % baseline value in data set [1] (ASO 1.0 μM) and 96 % baseline value in data set [1] (ASO 5.0 μM). For the same substance, the “TMPRSS2 mRNA levels (% baseline value) of cells without AR agonist treatment” value in data set [1] (ASO 0.04 μM) amounted to 110 % baseline value; in data set [1] (ASO 0.20 μM), 85 % baseline value; in data set [1] (ASO 1.0 μM) it was 54 % baseline value; in data set [1] (ASO 5.0 μM) it was 62 % baseline value. The “AR mRNA levels (% baseline value) after treatment with DHT” value was determined as 91 % baseline value in data set [2] (ASO 0.04 μM), 66 % baseline value in data set [2] (ASO 0.20 μM), 34 % baseline value in data set [2] (ASO 1.0 μM) and 31 % baseline value in data set [2] (ASO 5.0 μM). The “AR mRNA levels (% baseline value) after treatment with R1881” value in data set [2] (ASO 0.04 μM) stood at 88 % baseline value; in data set [2] (ASO 0.20 μM), 56 % baseline value; in data set [2] (ASO 1.0 μM), 25 % baseline value; in data set [2] (ASO 5.0 μM), 32 % baseline value. Also, the “AR mRNA levels (% baseline value) of cells without AR agonist treatment” value in data set [2] (ASO 0.04 μM) was found to be 101 % baseline value; in data set [2] (ASO 0.20 μM), 75 % baseline value; in data set [2] (ASO 1.0 μM), 30 % baseline value; in data set [2] (ASO 5.0 μM), 25 % baseline value.

Regarding “GTTGATTTAATGGTTG (all phosphorothioate, sugars by position not given here; further chemistry not fully specified) [ISIS 549458]”, in data set [1] (with or without DHT/R1881), the “TMPRSS2 mRNA levels in LMR20 cells” value was “reduced PSA levels and TMPRSS2 more extensively than the LNA gapmer ISIS 554221 or MDV3100”. The “AR mRNA levels in LMR20 cells” value in data set [2] (with or without DHT/R1881) was “reduced AR mRNA levels in LMR20 cells, treated with or without either AR agonist, in a dose dependent manner relative to the baseline”.
